Reference: US6376502B1, “Osteoporosis compounds” (priority 1997, dated 2002)

How the values were obtained:
[1] = tested on: Bone Morphogenetic Protein 7 (BMP-7) expression in wild type 293S cells; assay: Kidney regeneration assay: BMP-7 expression by Northern blot in wild type 293S cells; assay type: cell-based, human; settings: parental 293S cell line, 10^-6M, RNA at 8, 16 and 24 hours
Description: (§1) 293S and EP2 293S cells are grown in Dulbecco's Modified Egale medium (DMEM, Gibco, BRL; Gaithersburg, Md.). […] Cells are harvested and RNA is extracted at 8, 16 and 24 hours. Northern blot analysis of total ([…]) is carried out by probing the blots with ^32P-labeled BMP-7 probe. The blots are normalized for RNA loading by hybridization with ^32P-labeled 18s ribosomal RNA probe. […] Given the known role of BMP-7 in kidney regeneration and the ability of an prostaglandin agonist to induce BMP-7 expression in 293S kidney cells in a time and receptor specific manner indicates a role for prostaglandin agonist in kidney regeneration.

[2] = tested on: Bone Morphogenetic Protein 7 (BMP-7) expression in 293S cells transfected with EP2; assay: Kidney regeneration assay: BMP-7 expression by Northern blot in EP2 293S cells; assay type: cell-based, human; settings: 10^-6M, RNA at 8, 16 and 24 hours, time dependent
Description: as §1

## CCCCC[C@H](O)/C=C/[C@H]1[C@H](O)CC(=O)[C@@H]1C/C=C\CCCC(=O)O [PGE2, Prostaglandin E2]
[1]
  induction of BMP-7 expression: generally not observed
[2]
  induction of BMP-7 expression: induce the expression of BMP-7
